# From US11976083B2, “Inhibitors of peptidylarginine deiminases” (Gilead Sciences, Inc., priority 2020, dated 2024)
# Target: T1, human PAD4 (Homo sapiens, UniProt Q9UM07)
# T1 construct: human PAD4 (NM_012387), A2-P663, was PCR amplified; His-SUMO (N, cleaved yes); made in house; host or cells: E. coli BL21(DE3)
# Experiment: In vitro PAD4 BAEE biochemical assay
# Settings: BAEE substrate 3 mM, 5 nM PAD4, 2 mM calcium chloride; geometric mean of multiple experiments
# Outline: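 Fluorescence read-out (ex 405/em 535 nm) of isoindole formed from ammonia, o-phthalaldehyde and DTT after EDTA stop. Reaction: 5 nM PAD4, 2 mM CaCl2, 3 mM BAEE, 2 h, 25 °C, after 30 min enzyme–compound preincubation. Normalised to BB-Cl-Amidine (50 µM) and DMSO controls.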
# T1 sequence (Q9UM07 2-663): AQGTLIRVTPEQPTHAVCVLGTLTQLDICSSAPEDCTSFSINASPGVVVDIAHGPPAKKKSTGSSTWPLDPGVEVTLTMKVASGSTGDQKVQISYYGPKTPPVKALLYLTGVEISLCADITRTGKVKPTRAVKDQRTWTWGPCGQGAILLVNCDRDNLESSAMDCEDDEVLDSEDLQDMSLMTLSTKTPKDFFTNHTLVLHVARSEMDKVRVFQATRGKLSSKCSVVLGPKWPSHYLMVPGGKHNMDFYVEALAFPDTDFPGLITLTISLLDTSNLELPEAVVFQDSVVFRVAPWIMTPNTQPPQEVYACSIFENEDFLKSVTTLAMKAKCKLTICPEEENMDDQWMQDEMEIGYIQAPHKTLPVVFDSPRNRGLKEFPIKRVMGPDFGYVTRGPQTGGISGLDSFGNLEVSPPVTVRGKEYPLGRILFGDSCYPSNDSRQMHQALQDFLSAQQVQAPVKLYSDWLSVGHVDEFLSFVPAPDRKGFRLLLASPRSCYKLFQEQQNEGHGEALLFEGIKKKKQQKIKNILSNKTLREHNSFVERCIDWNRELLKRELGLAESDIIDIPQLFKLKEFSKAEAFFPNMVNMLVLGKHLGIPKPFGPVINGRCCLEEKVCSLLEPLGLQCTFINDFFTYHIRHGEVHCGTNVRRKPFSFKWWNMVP
row,Structure (SMILES),IC50 [nM]
1,"COc1cc(C(=O)N2CC[C@@H](OC)[C@@H](N)C2)cc2nc(-c3cc4ccc5nc4n3CCCCCc3nc4ccccc4nc3C(=O)N[C@@H]5C)n(C)c12 [Example 414, (2~{R})-21-[5-[(3~{S},4~{R})-3-amino-4-methoxy-piperidine-1-carbonyl]-7-methoxy-1-methyl-benzimidazol-2-yl]-2-methyl-3,6,13,20,26-pentazapentacyclo[18.5.2.0^{5,14).0^{7, 12}.0^{23,27}]heptacosa-1(26),5(14),6,8,10,12,21,23(27),24-nonaen-4-one]",125
2,"C[C@H]1NC(=O)[C@@H]2C[C@H]2CCCCCn2c(-c3nc4cc(C(=O)N[C@H]5CNCC[C@@H]5F)c(F)cc4n3[C@@H]3C[C@H]3C(F)F)cc3ccc1nc32 [Example 415, 1-[(1~{R},2~{R})-2-(difluoromethyl)cyclopropyl]-6-fluoro-~ {N}-[(3~{S},4~{S})-4-fluoro-3-piperidyl]-2-[(2~{R},5~{R},7~{R})-2-methyl-4-oxo-3,13,19-triazatetracyclo[11.5.2.0^{5,7}.0^{16,20}]icosa-1(19),14,16(20),17-tetraen-14-yl]benzimidazole-5-carboxamide]",52
3,"C[C@@H]1C[C@H]1n1c(-c2cc3ccc4nc3n2CCCCC[C@@H]2C[C@H]2C(=O)N[C@@H]4C)nc2cc(C(=O)N[C@H]3CNCC[C@@H]3F)c(F)cc21 [Example 416, 6-fluoro-~{N}-[(3~{S},4~{S})-4-fluoro-3-piperidyl]-1-[(1~{R},2~{R})-2-methylcyclopropyl]-2-[(2~{R},5~{R},7~{R})-2-methyl-4-oxo-3,13,19-triazatetracyclo[11.5.2.0^{5,7}.0^{16,20}]icosa-1(19),14,16(20),17-tetraen-14-yl]benzimidazole-5-carboxamide]",34
4,"COCCn1c(-c2cc3ccc4nc3n2CCCCCCC(C)(C)C(=O)N[C@@H]4C)nc2cc(C(=O)N[C@H]3CNCC[C@@H]3F)c(F)cc21 [Example 417, 6-fluoro-~{N}-[(3~{S},4~{S})-4-fluoro-3-piperidyl]-1-(2-methoxyethyl)-2-[(11~{R})-8,8,11-trimethyl-9-oxo-1,10,19-triazatricyclo[10.5.2.0^{15,18}]nonadeca-12(19),13,15(18),16-tetraen-17-yl]benzimidazole-5-carboxamide]",62
5,"C[C@H]1NC(=O)C(C)(C)CCCCCCn2c(-c3nc4cc(C(=O)N[C@H]5CNCC[C@@H]5F)c(F)cc4n3CC(F)F)cc3ccc1nc32 [Example 418, 1-(2,2-difluoroethyl)-6-fluoro-~{N}-[(3~{S},4~{S})-4-fluoro-3-piperidyl]-2-[(11~{R})-8,8,11-trimethyl-9-oxo-1,10,19-triazatricyclo[10.5.2.0^{15,18}]nonadeca-12(19),13,15(18),16-tetraen-17-yl]benzimidazole-5-carboxamide]",122
6,"C[C@H]1NC(=O)C(C)(C)CCCCCCn2c(-c3nc4cc(C(=O)N[C@H]5CNCC[C@@H]5F)c(F)cc4n3CC(F)(F)F)cc3ccc1nc32 [Example 419, 6-fluoro-~{N}-[(3~{S},4~{S})-4-fluoro-3-piperidyl]-1-(2,2,2-trifluoroethyl)-2-[(11~{R})-8,8,11-trimethyl-9-oxo-1,10,19-triazatricyclo[10.5.2.0^{15,18}]nonadeca-12(19),13,15(18),16-tetraen-17-yl]benzimidazole-5-carboxamide]",370
7,"C[C@H]1NC(=O)C(C)(C)CCCCCCn2c(-c3nc4cc(C(=O)N[C@H]5CNCC[C@@H]5F)c(F)cc4n3C3CCC3)cc3ccc1nc32 [Example 420, 1-cyclobutyl-6-fluoro-˜{N}-[(3˜{S},4˜{S})-4-fluoro-3-piperidyl]-2-[(11˜{R})-8,8,11-trimethyl-9-oxo-1,10,19-triazatricyclo[10.5.2.0^{15,18}]nonadeca-12(19),13,15(18),16-tetraen-17-yl]benzimidazole-5-carboxamide]",184
8,"CC(C)n1c(-c2cc3ccc4nc3n2CCCCCCC(C)(C)C(=O)N[C@@H]4C)nc2cc(C(=O)N[C@H]3CNCC[C@@H]3F)c(F)cc21 [Example 421, 6-fluoro-~{N}-[(3~{S),4~{S})-4-fluoro-3-piperidyl]-1-isopropyl-2-[(11~{R})-8,8,11-trimethyl-9-oxo-1,10,19-triazatricyclo[10.5.2.0^{15,18}]nonadeca-12(19),13,15(18),16-tetraen-17-yl]benzimidazole-5-carboxamide]",304
9,"COCCn1c(-c2cc3ccc4nc3n2CCCCC[C@@H]2C[C@H]2C(=O)N[C@@H]4C)nc2cc(C(=O)N[C@H]3CNCC[C@@H]3F)c(F)cc21 [Example 422, 6-fluoro-~{N}-[(4~{S})-4-fluoro-3-piperidyl]-1-(2-methoxyethyl)-2-[(2~{R},5~{R},7~{R})-2-methyl-4-oxo-3,13,19-triazatetracyclo[11.5.2.0^{5,7}.0^{16,20}]icosa-1(18),14,16,19-tetraen-14-yl]benzimidazole-5-carboxamide]",39
10,"CCn1c(-c2cc3ccc4nc3n2CCCCCCC(C)(C)C(=O)N[C@@H]4C)nc2cc(C(=O)N[C@H]3CNCC[C@@H]3F)c(F)cc21 [Example 423, 1-ethyl-6-fluoro-~{N}-[(3~{S},4~{S})-4-fluoro-3-piperidyl]-2-[(11~{R})-8,8,11-trimethyl-9-oxo-1,10,19-triazatricyclo[10.5.2.0^{15,18}]nonadeca-12(19),13,15(18),16-tetraen-17-yl]benzimidazole-5-carboxamide]",64
11,"CC(C)OCCn1c(-c2cc3ccc4nc3n2CCCCCCC(C)(C)C(=O)N[C@@H]4C)nc2cc(C(=O)N[C@H]3CNCC[C@@H]3F)c(F)cc21 [Example 424, 6-fluoro-~{N}-[(3~{S},4~{S})-4-fluoro-3-piperidyl]-1-(2-isopropoxyethyl)-2-[(11~{R})-8,8,11-trimethyl-9-oxo-1,10,19-triazatricyclo[10.5.2.0^{15,18}]nonadeca-12(19),13,15(18),16-tetraen-17-yl]benzimidazole-5-carboxamide]",111
12,"CCOCCn1c(-c2cc3ccc4nc3n2CCCCCCC(C)(C)C(=O)N[C@@H]4C)nc2cc(C(=O)N[C@H]3CNCC[C@@H]3F)c(F)cc21 [Example 425, 1-(2-ethoxyethyl)-6-fluoro-~{N}-[(3~{S},4~{S})-4-fluoro-3-piperidyl]-2-[(11~{R})-8,8,11-trimethyl-9-oxo-1,10,19-triazatricyclo[10.5.2.0^{15,18}]nonadeca-12(19),13,15(18),16-tetraen-17-yl]benzimidazole-5-carboxamide]",104
13,"C[C@H]1NC(=O)[C@@H]2C[C@H]2CCCCCn2c(-c3nc4cc(C(=O)N[C@H]5CNCC[C@@H]5F)c(F)cc4n3CCC#N)cc3ccc1nc32 [Example 426, 1-(2-cyanoethyl)-6-fluoro-~{N}-[(3~{S},4~{S})-4-fluoro-3-piperidyl]-2-[(2~{R},5~{R},7~{R})-2-methyl-4-oxo-3,13,19-triazatetracyclo[11.5.2.0^{5,7}.0^{16,20}]icosa-1(19),14,16(20),17-tetraen-14-yl]benzimidazole-5-carboxamide]",25
14,"COCCOCCn1c(-c2cc3ccc4nc3n2CCCCC[C@@H]2C[C@H]2C(=O)N[C@@H]4C)nc2cc(C(=O)N[C@H]3CNCC[C@@H]3F)c(F)cc21 [Example 427, 6-fluoro-~{N}-[(3~{S),4~{S})-4-fluoro-3-piperidyl]-1-[2-(2-methoxyethoxy)ethyl]-2-[(2~{R},5~{R},7~{R})-2-methyl-4-oxo-3,13,19-triazatetracyclo[11.5.2.0^{5,7}.0^{16,20}]icosa-1(19),14,16(20),17-tetraen-14-yl]benzimidazole-5-carboxamide]",54
15,"C[C@H]1NC(=O)[C@@H]2C[C@H]2CCCCCn2c(-c3nc4cc(C(=O)N[C@H]5CNCC[C@@H]5F)c(F)cc4n3CCC(N)=O)cc3ccc1nc32 [Example 428, 1-(3-amino-3-oxo-propyl)-6-fluoro-~ {N}-[(3~{S},4~{S})-4-fluoro-3-piperidyl]-2-[(2~{R},5~{R},7~{R})-2-methyl-4-oxo-3,13,19-triazatetracyclo[11.5.2.0^{5,7}.0^{16,20}]icosa-1(19),14,16(20),17-tetraen-14-yl]benzimidazole-5-carboxamide]",29
16,C[C@H]1NC(=O)[C@@H]2C[C@H]2CCCCCn2c(-c3nc4cc(C(=O)N[C@H]5CNCC[C@@H]5F)c(F)cc4n3CCOc3ccccc3)cc3ccc1nc32 [Example 429],68
17,"COC(C)Cn1c(-c2cc3ccc4nc3n2CCCCC[C@@H]2C[C@H]2C(=O)N[C@@H]4C)nc2cc(C(=O)N[C@H]3CNCC[C@@H]3F)c(F)cc21 (stereo partly shown) [Example 430, 6-fluoro-~{N}-[(3~{S},4~{S})-4-fluoro-3-piperidyl]-1-(2-methoxypropyl)-2-[(2~{R},5~{R},7~{R})-2-methyl-4-oxo-3,13,19-triazatetracyclo[11.5.2.0^{5,7}.0^{16,20}]icosa-1(19),14,16(20),17-tetraen-14-yl]benzimidazole-5-carboxamide]",44
18,"COCCn1c(-c2cc3ccc4nc3n2CCCCC[C@@H]2C[C@H]2C(=O)N[C@@H]4C)nc2cc(C(=O)N[C@H]3CNCC[C@@H]3F)cc(OC)c21 [Example 431, ~{N}-[(3~{S},4~{S})-4-fluoro-3-piperidyl]-7-methoxy-1-(2-methoxyethyl)-2-[(2~{R},5~{R},7~{R})-2-methyl-4-oxo-3,13,19-triazatetracyclo[11.5.2.0^{5,7}.0^{16,20}]icosa-1(19),14,16(20),17-tetraen-14-yl]benzimidazole-5-carboxamide]",41
19,"COCCn1c(-c2cc3ccc4nc3n2CCCCC[C@@H]2C[C@H]2C(=O)N[C@@H]4C)nc2cc(C(=O)N3CC[C@@H](OC)[C@@H](N)C3)cc(OC)c21 [Example 432, (2~{R},5~{R},7~{R})-14-[5-[(3~{S},4~{R})-3-amino-4-methoxy-piperidine-1-carbonyl]-7-methoxy-1-(2-methoxyethyl)benzimidazol-2-yl]-2-methyl-3,13,19-triazatetracyclo[11.5.2.0^{5,7}.0^{16,20}] icosa-1(19),14,16(20),17-tetraen-4-one]",161
